Our source for the stability of solution values is patent publication US11103474B2, “Pharmaceutical parenteral formulation containing carglumic acid” (RECORDATI INDUSTRIA CHIMICA E FARMACEUTICA S.P.A., priority 2016, dated 2021).

The data set in a line: Preliminary solubility trials (stability of carglumic acid solutions with NaOH, phosphate or HCl). It is filed as physicochemical. The source says:
Preliminary solubility trials have been performed using carglumic acid solutions buffered at pH from 5.0 to 5.7 with NaOH (0.5 M) or phosphate; the test were not successful since the solutions were not stable and gave an unknown degradation product (with molecular ion at 159 [m+H]+ detected in HPLC-mass-spectrometry) not present in the solution of carglumic acid in water.

As for `NC(=O)N[C@@H](CCC(=O)O)C(=O)O` [carglumic acid, Carglumic acid], the stability of solution entry runs as follows: (buffered at pH from 5.0 to 5.7 with NaOH (0.5 M) or phosphate, unknown degradation product formed) “not stable”; (in HCl 0.5 M, up to 24 hours, two known impurities above the accepted limits) “did not result stable”.
